Data taken from patent publication US20250281452A1, “CHIRAL ARYL PROPIONIC ACID DERIVATIVE AND PHARMACEUTICAL COMPOSITION THEREOF, AND USE” (SHIJIAZHUANG DISCOVERY MEDICINE TECHNOLOGY CO., LTD, priority 2022, published 2025).

Columns and labels:
[1] = test system: HFLS-RA cells; assay: Effect on HFLS-RA cell proliferation activity (CCK-8); format: cell-based, human; settings: TNF-α 10 ng/mL induced HFLS-RA cells, 72 h after treatment, x ± s
Method: Co-incubation: HFLS-RA cells in a logarithmic growth phase were inoculated in a 96-well culture plate at a density of 3×10^4 cells/ml with an inoculation volume of each well being 100 μL, and cultured for 24 h in a 37° C. and 5% CO2 incubator (the cell adhesion convergence degree reached about 25%) after inoculation, and then a proper amount of sample solutions was added according to the grouping and final concentrations of samples, with 3 duplicated wells set in each group. Before sampling (0 h), group 1 in blank control group was subjected to CCK-8 detection, and the rest groups were cultured for 72 h in an incubator and then subjected to CCK-8 detection.
Detection and calculation: the culture solution was discarded, and 100 μL of culture medium containing a 10% CCK-8 solution was added into each well and incubated for 2 h at 37° C. The light absorption value (OD value) was measured at 450 nm using a microplate reader, and the cell proliferation rate was calculated according to the following formula.
cell proliferation rate=[OD(72 h)−OD(0 h)]/OD(0 h)×100%, Calculation formula
where, OD(0 h) represents the OD value at 0 h, and […].

[2] = test system: IL-6 in HFLS-RA cells; assay: Effect on HFLS-RA cytokine secretion, IL-6 (ELISA); format: cell-based, human; parameters: unit not given here; settings: supernatant content, TNF-α 10 ng/mL, test sample 100 µg/mL, 48 h culture, x ± s
Method: (§1) The experiment was divided into a blank control group (containing no test samples or TNF-α), a TNF-α group (the final concentration of TNF-α for cell incubation was 10 ng/mL), test sample groups (8 groups in total, including DSC4801 group, DSC4807 group, DSC4810 group, DSC4813 group, DSC4821 group and DSC4826 group as well as control 1 group, control 3 group, the final concentrations of test samples for cell incubation and of TNT-α were 100 µg/mL and 10 ng/mL, respectively).
(§2) HFLS-RA cells in a logarithmic growth phase were inoculated in a 6-well culture plate at a density of 5×10^4 cell/ml with an inoculation volume of each well being 200 μL, and cultured for 2 h in a 37° C. and 5% CO2 incubator after inoculation, and then a proper amount of sample solutions was added according to the grouping and the final concentrations of samples, with 3 duplicated wells set in each group. Cell supernatant was collected after further culture of 48 h, and the contents of IL-6 and IL-8 in the supernatant were detected using an ELISA kit.

[3] = test system: IL-8 in HFLS-RA cells; assay: Effect on HFLS-RA cytokine secretion, IL-8 (ELISA); format: cell-based, human; parameters: unit not given here; settings: supernatant content, TNF-α 10 ng/mL, test sample 100 µg/mL, 48 h culture, x ± s
Method: as §1, §2

[4] = after oral administration; cited from earlier work
[5] = cited from earlier work
[6] = single local administration of 1% loxoprofen (100 mg), in 12 hours; cited from earlier work
[7] = Joint tissue distribution after oral gavage; format: in vivo; settings: SD rats, ankle joint tissue at 0.5, 1, 2 h, trans-OH metabolite detected by LC-MS/MS, compared with control 1 and control 2, P<0.001 (FIG. 1)
Method: 36 healthy male SD rats with a body weight of 200±20 g per rat were fed under conditions of a room temperature of 20-26° C., a humidity of 40%-70% and a light and dark cycle of 12 h/12 h, the rats were fed at liberty in the process of feeding. After adaptive feeding for 3 days, the SD rats were randomly divided into 4 groups (A/B/C/D groups), with 9 rats per group, each group was further randomly divided into 3 time groups, with 3 rats per time group. A suspension (the test samples were suspended with 1% MS, respectively) of the test sample was given to each group via oral gavage, wherein group A was administrated with 3 mg/kg of DSC4813, group B was administrated with 2.94 mg/kg of DSC4821, group C was administrated with 2.47 mg/kg of control 1, and group D was administrated with 2 mg/kg of control 2 (loxoprofen). 3 rats were anesthetized and euthanized in each group at 0.5 h, 1 h and 2 h, respectively after administration. The left and right ankle joints of hind legs were dissected, and the skin at the joints was peeled off. […] To-be-detected substances were detected by LC-MS/MS (compound trans-OH metabolite was detected for groups A/B/C, loxoprofen and all isomers whose carbonyl was reduced to OH for group D, and the results of group D were a sum of concentrations of loxoprofen and all isomers whose carbonyl was reduced to OH).

SMILES	Cell proliferation rate [1] [%]	further results
CC(=O)O[C@H]1CCC[C@@H]1Cc1ccc([C@H](C)C(=O)OCCN2C(=O)CCC2=O)cc1 [DSC4814]	24.36 ± 1.99	–
CCN(CC)CCOC(=O)O[C@H]1CCC[C@@H]1Cc1ccc([C@H](C)C(=O)O)cc1 [DSC4826]	21.43 ± 1.94	IL-6 [2]: 47.59 ± 0.45; IL-8 [3]: 117.77 ± 4.23
CC(C(=O)O)c1ccc(CC2CCCC2=O)cc1 (stereo not drawn) [Control 2, loxoprofen]	–	Time until plasma concentration reaches peak [4]: 30 to 50 min; Plasma protein binding rate [5]: 97%; Dose transferred to a body [6]: 10%
CC[N+](CC)(CC)CCOC(=O)[C@@H](C)c1ccc(C[C@H]2CCC[C@@H]2O)cc1 [DSC4816]	29.71 ± 2.83	–
CCN(CC)CCOC(=O)[C@@H](C)c1ccc(C[C@H]2CCC[C@@H]2OC(=O)C(CS)N(C)C)cc1 (stereo partly drawn) [DSC4806]	24.19 ± 2.24	–
CC(C(=O)O)c1ccc(CC2CCCC2=O)cc1 (stereo not drawn) [Control 2, loxoprofen, reference compound]	48.25 ± 3.21	–
C[C@H](C(=O)O)c1ccc(C[C@H]2CCC[C@@H]2OC(=O)C(N)CS)cc1 (stereo partly drawn) [DSC4809]	22.47 ± 1.99	–
CC[N+](CC)(CC)CCOC(=O)[C@@H](C)c1ccc(C[C@H]2CCC[C@@H]2O)cc1 [DSC4815]	28.31 ± 2.26	–
CCOC(=O)[C@@H](C)c1ccc(C[C@H]2CCC[C@@H]2OC(=O)COCC[N+](CC)(CC)CC)cc1 [DSC4817]	23.32 ± 2.46	–
CCOC(=O)[C@@H](C)c1ccc(C[C@H]2CCC[C@@H]2OC(=O)CN(CC)CC)cc1 [DSC4819]	20.36 ± 2.10	–
CCN(CC)CCOCCOC(=O)[C@@H](C)c1ccc(C[C@H]2CCC[C@@H]2O)cc1 [DSC4802]	27.26 ± 2.41	–
C[C@H](C(=O)OCCN1C(=O)CCC1=O)c1ccc(C[C@H]2CCC[C@@H]2O)cc1 [DSC4813]	22.34 ± 2.72	IL-6 [2]: 46.82 ± 0.63; IL-8 [3]: 119.48 ± 4.07; Distribution at joints [7]: significantly improved
CCN(CC)CCOC(=O)[C@@H](C)c1ccc(C[C@H]2CCC[C@@H]2O)cc1 [DSC4801]	31.18 ± 1.82	IL-6 [2]: 46.26 ± 0.35; IL-8 [3]: 119.08 ± 4.55
CCOC(=O)[C@@H](C)c1ccc(C[C@H]2CCC[C@@H]2OC(=O)C(CS)N(C)C)cc1 (stereo partly drawn) [DSC4812]	23.81 ± 2.21	–
CCN(CC)CCOCCOC(=O)[C@@H](C)c1ccc(C[C@H]2CCC[C@@H]2OC(C)=O)cc1 [DSC4805]	29.28 ± 1.92	–
CCOC(=O)[C@@H](C)c1ccc(C[C@H]2CCC[C@@H]2OC(=O)OCCN(CC)CC)cc1 [DSC4825]	22.53 ± 2.66	–
CCOC(=O)[C@@H](C)c1ccc(C[C@H]2CCC[C@@H]2OC(=O)COCCN(CC)CC)cc1 [DSC4811]	22.37 ± 1.78	–
CCCC(=O)O[C@H]1CCC[C@@H]1Cc1ccc([C@H](C)C(=O)O)cc1 [Control 1, reference compound]	39.33 ± 3.46	IL-6 [2]: 67.45 ± 2.68; IL-8 [3]: 131.21 ± 6.88
CN(Cc1cnc2nc(N)nc(N)c2n1)c1ccc(C(=O)N[C@@H](CCC(=O)O)C(=O)O)cc1 [Negative control group, methotrexate, reference compound]	–	Cell proliferation rate ([1]; methotrexate 1 g/mL): 18.37 ± 1.32%
CCN(CC)CCNCCOCC(=O)O[C@H]1CCC[C@@H]1Cc1ccc([C@H](C)C(=O)O)cc1 [DSC4808]	23.11 ± 2.25	–
CCN(CC)CCOCC(=O)O[C@H]1CCC[C@@H]1Cc1ccc([C@H](C)C(=O)O)cc1 [DSC4807]	22.23 ± 3.04	IL-6 [2]: 48.01 ± 0.77; IL-8 [3]: 121.66 ± 4.78
CCOC(=O)[C@@H](C)c1ccc(C[C@H]2CCC[C@@H]2OC(=O)CCN(CC)CC)cc1 [DSC4820]	21.11 ± 3.56	–
CCN(CC)CCOC(=O)[C@@H](C)c1ccc(C[C@H]2CCC[C@@H]2OC(C)=O)cc1 [DSC4804]	29.36 ± 2.33	–
CCOC(=O)[C@@H](C)c1ccc(C[C@H]2CCC[C@@H]2OC(=O)COCC[N+](CC)(CC)CC)cc1 [DSC4818]	22.54 ± 2.14	–
CCN(CC)CC(=O)O[C@H]1CCC[C@@H]1Cc1ccc([C@H](C)C(=O)O)cc1 [DSC4821]	20.96 ± 1.85	IL-6 [2]: 46.58 ± 0.61; IL-8 [3]: 117.72 ± 3.43; Distribution at joints [7]: significantly improved
CCN(CC)CCN(CC)CCOC(=O)[C@@H](C)c1ccc(C[C@H]2CCC[C@@H]2O)cc1 [DSC4803]	30.17 ± 1.85	–
C[C@H](C(=O)O)c1ccc(C[C@H]2CCC[C@@H]2OC(=O)C(CS)N(C)C)cc1 (stereo partly drawn) [DSC4810]	24.95 ± 2.65	IL-6 [2]: 47.88 ± 0.72; IL-8 [3]: 118.57 ± 3.92
